Laboratory results as given in patent publication US20170360912A1, “CHITOSAN-BASED HYDROGEL AND APPLICATIONS THEREOF” (priority 2014, published 2017).

Key:
[1] = BGP pKa,2 at 25° C.; cited from earlier work
[2] = Measurement of pH and osmolality (Example 2); type: physicochemical; conditions: FIG. 8 panels A-C
Method: After 24 hours of gelation at 37° C., each hydrogel was pressed and filtered in order to recover entrapped solution. The pH of the extracted liquids was measured at room temperature using a pH meter (UltraBasic pH-meter, Denver Instrument). The impact of GA concentration of gels prepared with culture medium (as detailed in Section 2.2.4) on the final osmolality of hydrogels was measured using an osmometer (Advanced® Micro Osmometer, Model 3300, Advanced Instruments Inc.).

[3] = tested on: endothelial-derived cells (EA.hy 926); conditions: SHC 0.1M; cited from earlier work
[4] = Doxycycline denaturation on mixing, spectrometry; type: physicochemical
Source text: Addition of an anti-oxidant was however required for long term stability.

SMILES | pKa [1] | slope of osmolality versus gelling agent concentration [2] | damage on endothelial-derived cells [3] | drug stability on direct addition in the CH or GA solution [4] | drug stability on addition in the CH-GA solution ([4]; room temperature)
O=C([O-])O.[Na+] [SHC, Sodium hydrogen carbonate] | 6.35 | 1475 | no damage | – | –
O.O.O.O.O.O=P([O-])([O-])OC(CO)CO.[Na+].[Na+] [BGP, β-Glycerol phosphate disodium salt pentahydrate, reference compound] | 6.65 | 1789 | – | – | –
C[C@H]1c2cccc(O)c2C(=O)C2=C(O)[C@]3(O)C(=O)C(C(N)=O)=C(O)[C@@H](N(C)C)[C@@H]3[C@@H](O)[C@@H]21 [doxycycline] | – | – | – | drug denaturation | avoid drug denaturation
